From US20240391862A1, “(1,4,5-TRISUBSTITUTED-1H-PYRAZOL-3-YL)OXY-2-ALKOXY ALKYL ACIDS AND THEIR DERIVATIVES, THEIR SALTS AND THEIR USE AS HERBICIDAL AGENTS” (Bayer AKtiengesellschaft, priority 2021, published 2024)

Legend:
Experiment in all cases: Post-emergence herbicidal effect, greenhouse pot test
ABUTH = assay type: in vivo, Abutilon theophrasti; settings: visual rating about 3 weeks after treatment
Summary of the method: (§1)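 Weeds sown in sandy loam, greenhouse-grown 2–3 weeks, then sprayed at one-leaf stage with WP or EC formulations in water plus 0.5% additive at 600 l/ha. Rates 20 to 320 g/ha. Visual rating after about 3 weeks versus untreated controls (100% = plants dead, 0% = like control).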

ALOMY = assay type: in vivo, Alopecurus myosuroides; settings: visual rating about 3 weeks after treatment
Summary of the method: as §1

AMARE = assay type: in vivo, Amaranthus retroflexus; settings: visual rating about 3 weeks after treatment
Summary of the method: as §1

AVEFA = assay type: in vivo, Avena fatua; settings: visual rating about 3 weeks after treatment
Summary of the method: as §1

DIGSA = assay type: in vivo, Digitaria sanguinalis; settings: visual rating about 3 weeks after treatment; for Post-emergence effect against DIGSA: 320 g/ha; for pest or weed control at 80 g/ha: Digitaria sanguinalis, 504 h, read-out: Post-emergence effect against DIGSA
Summary of the method: as §1

ECHCG = assay type: in vivo, Echinochloa crus-galli; settings: for Post-emergence effect against ECHCG: 20 g/ha, visual rating about 3 weeks after treatment
Summary of the method: as §1

LOLRI = assay type: in vivo, Lolium rigidum
Summary of the method: as §1

MATIN = assay type: in vivo, Tripleurospermum inodorum
Summary of the method: as §1

PHBPU = assay type: in vivo, Ipomoea purpurea
Summary of the method: as §1

POLCO = assay type: in vivo, Fallopia convolvulus
Summary of the method: as §1

SETVI = assay type: in vivo, Setaria viridis; settings: for pest or weed control at 20 g/ha: Setaria viridis, 504 h, read-out: Post-emergence effect against SETVI in %
Summary of the method: as §1

VERPE = assay type: in vivo, Veronica persica
Summary of the method: as §1

VIOTR = assay type: in vivo, Viola tricolor
Summary of the method: as §1

KCHSC = assay type: in vivo; settings: for pest or weed control at 20 g/ha: 504 h, read-out: Post-emergence effect against KCHSC in %
Summary of the method: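 Greenhouse plants in sandy loam, sprayed post-emergence at the one-leaf stage (2–3 weeks after sowing) with WP or EC formulations in water plus 0.5% additive at 600 l/ha. Rates 20 to 320 g/ha. Activity rated visually after about 3 weeks against untreated controls (0% like control, 100% dead).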

COC(Oc1nn(-c2ncccc2F)c(-c2cncc(F)c2)c1C1CC1)C(=O)O (stereo not shown) [Example I-84]
90%: Post-emergence effect against ALOMY (ALOMY; 320 g/ha) | Post-emergence effect against AVEFA (AVEFA; 80 g/ha) | Post-emergence effect against AVEFA (AVEFA; 320 g/ha) | Post-emergence effect against DIGSA (DIGSA) | Post-emergence effect against ECHCG (ECHCG) | Post-emergence effect against ECHCG in % (ECHCG; 80 g/ha) | Post-emergence effect against ECHCG in % (ECHCG; 320 g/ha) | Post-emergence effect against LOLRI in % (LOLRI; 320 g/ha) | pest or weed control at 80 g/ha (LOLRI; Lolium rigidum, 504 h, 80 g/ha, read-out: Post-emergence effect against LOLRI in %) | Post-emergence effect against PHBPU in % (PHBPU; 80 g/ha) | Post-emergence effect against PHBPU in % (PHBPU; 320 g/ha) | Post-emergence effect against POLCO in % (POLCO; 80 g/ha) | Post-emergence effect against POLCO in % (POLCO; 320 g/ha) | Post-emergence effect against SETVI in % (SETVI; 80 g/ha) | Post-emergence effect against SETVI in % (SETVI; 320 g/ha) | Post-emergence effect against VERPE in % (VERPE; 80 g/ha) | Post-emergence effect against VERPE in % (VERPE; 320 g/ha) | Post-emergence effect against VIOTR in % (VIOTR; 80 g/ha) | Post-emergence effect against VIOTR in % (VIOTR; 320 g/ha) | Post-emergence effect against KCHSC in % (KCHSC; 80 g/ha) | Post-emergence effect against KCHSC in % (KCHSC; 320 g/ha) | pest or weed control at 20 g/ha (KCHSC)
80%: Post-emergence effect against ABUTH (ABUTH; 80 g/ha) | Post-emergence effect against ABUTH (ABUTH; 320 g/ha) | Post-emergence effect against AMARE (AMARE; 320 g/ha) | pest or weed control at 80 g/ha (AMARE; Amaranthus retroflexus, 504 h, 80 g/ha, read-out: Post-emergence effect against AMARE) | pest or weed control at 80 g/ha (DIGSA) | Post-emergence effect against MATIN in % (MATIN; 80 g/ha) | Post-emergence effect against MATIN in % (MATIN; 320 g/ha) | pest or weed control at 20 g/ha (PHBPU; Ipomoea purpurea, 504 h, 20 g/ha, read-out: Post-emergence effect against PHBPU in %) | pest or weed control at 20 g/ha (SETVI)

COC(=O)C(OC)Oc1nn(-c2ncccc2F)c(-c2cncc(F)c2)c1C1CC1 (stereo not shown) [Example I-87]
80%: Post-emergence effect against AMARE (AMARE; 80 g/ha) | pest or weed control at 80 g/ha (DIGSA) | Post-emergence effect against MATIN in % (MATIN; 80 g/ha) | Post-emergence effect against MATIN in % (MATIN; 320 g/ha) | Post-emergence effect against POLCO in % (POLCO; 20 g/ha) | pest or weed control at 20 g/ha (VERPE; Veronica persica, 504 h, 20 g/ha, read-out: Post-emergence effect against VERPE in %)
90%: Post-emergence effect against ABUTH (ABUTH; 80 g/ha) | Post-emergence effect against ABUTH (ABUTH; 320 g/ha) | pest or weed control at 20 g/ha (ABUTH; Abutilon theophrasti, 504 h, 20 g/ha, read-out: Post-emergence effect against ABUTH) | Post-emergence effect against ALOMY (ALOMY; 80 g/ha) | Post-emergence effect against ALOMY (ALOMY; 320 g/ha) | Post-emergence effect against AMARE (AMARE; 320 g/ha) | Post-emergence effect against AVEFA (AVEFA; 80 g/ha) | Post-emergence effect against AVEFA (AVEFA; 320 g/ha) | Post-emergence effect against DIGSA (DIGSA) | Post-emergence effect against ECHCG (ECHCG) | Post-emergence effect against ECHCG in % (ECHCG; 80 g/ha) | Post-emergence effect against ECHCG in % (ECHCG; 320 g/ha) | Post-emergence effect against LOLRI in % (LOLRI; 80 g/ha) | Post-emergence effect against LOLRI in % (LOLRI; 320 g/ha) | Post-emergence effect against PHBPU in % (PHBPU; 20 g/ha) | Post-emergence effect against PHBPU in % (PHBPU; 80 g/ha) | Post-emergence effect against PHBPU in % (PHBPU; 320 g/ha) | Post-emergence effect against POLCO in % (POLCO; 80 g/ha) | Post-emergence effect against POLCO in % (POLCO; 320 g/ha) | Post-emergence effect against SETVI in % (SETVI; 80 g/ha) | Post-emergence effect against SETVI in % (SETVI; 320 g/ha) | pest or weed control at 20 g/ha (SETVI) | Post-emergence effect against VERPE in % (VERPE; 80 g/ha) | Post-emergence effect against VERPE in % (VERPE; 320 g/ha) | Post-emergence effect against VIOTR in % (VIOTR; 20 g/ha) | Post-emergence effect against VIOTR in % (VIOTR; 80 g/ha) | Post-emergence effect against VIOTR in % (VIOTR; 320 g/ha) | Post-emergence effect against KCHSC in % (KCHSC; 80 g/ha) | Post-emergence effect against KCHSC in % (KCHSC; 320 g/ha) | pest or weed control at 20 g/ha (KCHSC)
